{
  "source": "patent US10792289B2",
  "about": "(Horizon Orphan LLC, priority 2009, dated 2020)",
  "tested_on": "stable CF patients",
  "assay": "Phase 1b study: pulmonary function tests (FEV1)",
  "assay_type": "in vivo, human",
  "protocol": "All patients had had P. aeruginosa cultured from sputum within the previous 24 months and at the screening visit. Study drug was administered twice daily for up to 14 days at three doses by aerosol using a PART eFlow device. Respirable delivered doses (RDD) were approximately 40 mg, 80 mg, and 120 mg per treatment, corresponding to loaded doses of 78 mg, 175 mg, and 260 mg, respectively. Thus, the estimated total daily RDDs were 80 mg, 160 mg, and 240 mg. Study drugs were administered at 30 mg/ml (for 40 mg dose) or 50 mg/ml (for 80 mg and 120 mg doses).\nIn Table 3, relative change from baseline (CBG) was calculated as ‘Result’ FEV1 minus ‘Baseline’ FEV1 divided by ‘Baseline’ FEV1.",
  "key": {"[1]": {"conditions": "80 mg RDD BID, Day 1 predose baseline"}, "[2]": {"conditions": "120 mg RDD BID, Day 1 predose baseline"}},
  "data": [
    {"compound": "C[C@H]1COc2c(N3CCN(C)CC3)c(F)cc3c(=O)c(C(=O)O)cn1c23", "note": "[Levofloxacin, levofloxacin]", "values": [
      {"measurement": "FEV1, median", "setting": "40 mg RDD BID, Day 1 predose baseline", "result": 2.30, "unit": "L"},
      {"measurement": "FEV1, median", "setting": "40 mg RDD BID, Day 2 predose", "result": 2.32, "unit": "L"},
      {"measurement": "FEV1, median", "setting": "40 mg RDD BID, Day 7", "result": 2.30, "unit": "L"},
      {"measurement": "FEV1, median", "setting": "40 mg RDD BID, Day 14 predose", "result": 2.30, "unit": "L"},
      {"measurement": "FEV1, median", "setting": "40 mg RDD BID, Day 21/ET", "result": 2.07, "unit": "L"},
      {"measurement": "FEV1, mean", "setting": "[1]", "result": 2.06, "unit": "L"},
      {"measurement": "FEV1, median", "setting": "[1]", "result": 1.95, "unit": "L"},
      {"measurement": "FEV1, median", "setting": "80 mg RDD BID, Day 2 predose", "result": 2.00, "unit": "L"},
      {"measurement": "FEV1, median", "setting": "80 mg RDD BID, Day 7", "result": 2.08, "unit": "L"},
      {"measurement": "FEV1, median", "setting": "80 mg RDD BID, Day 14 predose", "result": 2.10, "unit": "L"},
      {"measurement": "FEV1, mean", "setting": "80 mg RDD BID, Day 21/ET", "result": 2.03, "unit": "L"},
      {"measurement": "FEV1, median", "setting": "80 mg RDD BID, Day 21/ET", "result": 2.04, "unit": "L"},
      {"measurement": "FEV1, mean", "setting": "[2]", "result": 2.56, "unit": "L"},
      {"measurement": "FEV1, median", "setting": "[2]", "result": 2.23, "unit": "L"},
      {"measurement": "FEV1, mean", "setting": "120 mg RDD BID, Day 2 predose", "result": 2.73, "unit": "L"},
      {"measurement": "FEV1, median", "setting": "120 mg RDD BID, Day 2 predose", "result": 2.38, "unit": "L"},
      {"measurement": "FEV1, mean", "setting": "120 mg RDD BID, Day 7", "result": 3.07, "unit": "L"},
      {"measurement": "FEV1, median", "setting": "120 mg RDD BID, Day 7", "result": 2.40, "unit": "L"},
      {"measurement": "FEV1, mean", "setting": "120 mg RDD BID, Day 14 predose", "result": 3.12, "unit": "L"},
      {"measurement": "FEV1, median", "setting": "120 mg RDD BID, Day 14 predose", "result": 2.57, "unit": "L"},
      {"measurement": "FEV1, mean", "setting": "120 mg RDD BID, Day 21/ET", "result": 2.75, "unit": "L"},
      {"measurement": "FEV1, median", "setting": "120 mg RDD BID, Day 21/ET", "result": 2.48, "unit": "L"}
    ]}
  ]
}
